From PubChem BioAssay AID1259407 (Chemical Carcinogenesis Research Information System (CCRIS), 2018)
Activity calls are given as the source filed them. How the calls were made is not given here.

Tested on: CCRIS mutagenicity, Ames/micronucleus/aberration tests
Experiment: CCRIS mutagenicity studies
[1] = Test System: AMES SALMONELLA TYPHIMURIUM, Strain/Indicator: TA98, Metabolic Activation: HAMSTER, LIVER, S-9, AROCLOR 1254, Method: STANDARD PLATE
[2] = Test System: AMES SALMONELLA TYPHIMURIUM, Strain/Indicator: TA98, Metabolic Activation: NONE, Method: STANDARD PLATE
[3] = Test System: AMES SALMONELLA TYPHIMURIUM, Strain/Indicator: TA98, Metabolic Activation: RAT, LIVER, S-9, AROCLOR 1254, Method: STANDARD PLATE
[4] = Test System: AMES SALMONELLA TYPHIMURIUM, Strain/Indicator: TA100, Metabolic Activation: HAMSTER, LIVER, S-9, AROCLOR 1254, Method: STANDARD PLATE
[5] = Test System: AMES SALMONELLA TYPHIMURIUM, Strain/Indicator: TA100, Metabolic Activation: NONE, Method: STANDARD PLATE
[6] = Test System: AMES SALMONELLA TYPHIMURIUM, Strain/Indicator: TA100, Metabolic Activation: RAT, LIVER, S-9, AROCLOR 1254, Method: STANDARD PLATE
[7] = Test System: AMES SALMONELLA TYPHIMURIUM, Strain/Indicator: TA1538, Metabolic Activation: NONE, Method: STANDARD PLATE
[8] = Test System: AMES SALMONELLA TYPHIMURIUM, Strain/Indicator: TA1538, Metabolic Activation: RAT, LIVER, S-9, AROCLOR 1254, Method: STANDARD PLATE
[9] = Test System: AMES SALMONELLA TYPHIMURIUM, Strain/Indicator: TA1535, Metabolic Activation: NONE, Method: STANDARD PLATE
[10] = Test System: AMES SALMONELLA TYPHIMURIUM, Strain/Indicator: TA98, Metabolic Activation: NONE, Method: PREINCUBATION

O=[N+]([O-])c1ccc2[nH]ncc2c1
mutagenic call [1]: active; positive | mutagenic call [2]: active; positive | mutagenic call [3]: active; positive | mutagenic call [4]: active; positive | mutagenic call [5]: active; positive | mutagenic call [6]: active; positive | mutagenic call (Test System: MOUSE LYMPHOMA, Strain/Indicator: L5178Y (TK+/TK-), Metabolic Activation: NONE, Method: SUSPENSION/PLATE): inactive; negative. reevaluation of results: negative | mutagenic call (Test System: MOUSE LYMPHOMA, Strain/Indicator: L5178Y (TK+/TK-), Metabolic Activation: RAT, LIVER, S-9, AROCLOR 1254, Method: SUSPENSION/PLATE): inactive; negative. reevaluation of results: negative

CN(C)C(=S)SNCCNSC(=S)N(C)C
mutagenic call [5]: active; positive | mutagenic call (Test System: AMES SALMONELLA TYPHIMURIUM, Strain/Indicator: TA100, Metabolic Activation: S-9 MIX, Method: STANDARD PLATE): inactive; negative

COC(=O)[C@@H](C)CN=[N+]=[N-]
mutagenic call (Test System: AMES SALMONELLA TYPHIMURIUM, Strain/Indicator: TA100, Metabolic Activation: RAT, LIVER, S-9, PCB, Method: PREINCUBATION): active; positive

CCN(CC)c1ccc(N=Nc2ccc(N=Nc3c(S(=O)(=O)O)cc4ccc(N)cc4c3O)c(OCCO)c2)cc1
mutagenic call [2]: inactive; negative | mutagenic call [3]: active; positive | mutagenic call [5]: inactive; negative | mutagenic call [6]: inactive; negative | mutagenic call [7]: inactive; negative | mutagenic call [8]: active; positive

Fc1cnc2ccccc2c1
mutagenic call (End Point: In vitro Chromosomal aberrations, Test System: Chinese hamster lung fibroblast cells (CHL/IU), Metabolic Activation: Rat, liver, S-9): active; positive (information derived from a figure) | mutagenic call (End Point: In vitro Micronucleus, Test System: Chinese hamster lung fibroblast cells (CHL/IU), Metabolic Activation: Rat, liver, S-9): active; positive (information derived from a figure) | mutagenic call (Test System: AMES SALMONELLA TYPHIMURIUM, Strain/Indicator: TA100, Metabolic Activation: RAT LIVER S-9, PHENOBARBITAL AND 5,6-BENZOFLAVONE, Method: PREINCUBATION): inactive; negative | mutagenic call (Test System: AMES SALMONELLA TYPHIMURIUM, Strain/Indicator: TA100, Metabolic Activation: RAT, LIVER, S-9, AROCLOR 1254, Method: PREINCUBATION): inactive; negative | mutagenic call (Test System: AMES SALMONELLA TYPHIMURIUM, Strain/Indicator: TA100, Metabolic Activation: RAT, LIVER, S-9, PHENOBARBITAL AND 5,6-BENZOFLAVONE, Method: PREINCUBATION): inactive; negative | mutagenic call (Test System: AMES SALMONELLA TYPHIMURIUM, Strain/Indicator: TA100, Metabolic Activation: RAT, LIVER, S-9, PHENOBARBITAL AND 5,6-NAPHTHOFLAVONE, Method: PREINCUBATION): inactive; negative | mutagenic call (Test System: AMES SALMONELLA, Strain/Indicator: TA100, Metabolic Activation: RAT, LIVER, S-9, PHENOBARBITAL AND 5,6-BENZOFLAVONE, Method: PREINCUBATION): inactive; negative | mutagenic call (Test System: UDS RODENT HEPATOCYTES, Strain/Indicator: THY INCORP (NON-S-PHASE), Metabolic Activation: NONE, Method: AUTORADIOGRAPHY): inactive; negative

CC1=C(/C=C/C(C)=C/C=C/C(C)=C/C=C/C=C(C)/C=C/C=C(C)/C=C/C2=C(C)CCCC2(C)C)C(C)(C)CCC1
mutagenic call (End Point: IN VITRO CHROMOSOMAL ABERRATIONS, Test System: F344 FEMALE RAT HEPATOCYTE, Metabolic Activation: NONE): active; positive | mutagenic call (End Point: IN VITRO MICRONUCLEUS, Test System: F344 FEMALE RAT HEPATOCYTES, Metabolic Activation: NONE): active; positive | mutagenic call (Test System: AMES SALMONELLA TYPHIMURIUM, Strain/Indicator: TA97, Metabolic Activation: NONE, Method: PREINCUBATION): inactive; negative | mutagenic call (Test System: AMES SALMONELLA TYPHIMURIUM, Strain/Indicator: TA97, Metabolic Activation: S-9, Method: PREINCUBATION): inactive; negative | mutagenic call [2]: inactive; negative | mutagenic call [3]: inactive; negative | mutagenic call [5]: inactive; negative | mutagenic call [6]: inactive; negative | mutagenic call (Test System: AMES SALMONELLA TYPHIMURIUM, Strain/Indicator: TA102, Metabolic Activation: NONE, Method: PREINCUBATION): inactive; negative | mutagenic call (Test System: AMES SALMONELLA TYPHIMURIUM, Strain/Indicator: TA102, Metabolic Activation: S-9, Method: PREINCUBATION): inactive; negative

C=CCCCCCCCCCCCCC
mutagenic call (Test System: AMES SALMONELLA TYPHIMURIUM, Strain/Indicator: TA98, Metabolic Activation: MOUSE, LIVER, S-9, Method: STANDARD PLATE): inactive; negative | mutagenic call [2]: inactive; negative | mutagenic call (Test System: AMES SALMONELLA TYPHIMURIUM, Strain/Indicator: TA100, Metabolic Activation: MOUSE, LIVER, S-9, Method: STANDARD PLATE): inactive; negative | mutagenic call [5]: inactive; negative | mutagenic call [9]: inactive; negative | mutagenic call [7]: inactive; negative

C1=CC2OC2c2ncccc21 (centres undefined)
mutagenic call [5]: inactive; negative | mutagenic call (Test System: AMES SALMONELLA TYPHIMURIUM, Strain/Indicator: TA100, Metabolic Activation: RAT, LIVER, S-9, AROCLOR 1254 (10% OR 20%), Method: STANDARD PLATE): active; positive

COc1cc(CNC(=O)CCCCCCC(C)C)ccc1O
mutagenic call [1]: inactive; negative | mutagenic call [3]: inactive; negative | mutagenic call [4]: inactive; negative | mutagenic call [5]: inactive; negative | mutagenic call [6]: inactive; negative | mutagenic call (Test System: AMES SALMONELLA TYPHIMURIUM, Strain/Indicator: TA1535, Metabolic Activation: HAMSTER, LIVER, S-9, AROCLOR 1254, Method: STANDARD PLATE): inactive; negative | mutagenic call [9]: inactive; negative | mutagenic call (Test System: AMES SALMONELLA TYPHIMURIUM, Strain/Indicator: TA1535, Metabolic Activation: RAT, LIVER, S-9, AROCLOR 1254, Method: STANDARD PLATE): inactive; negative | mutagenic call (Test System: AMES SALMONELLA TYPHIMURIUM, Strain/Indicator: TA1537, Metabolic Activation: HAMSTER, LIVER, S-9, AROCLOR 1254, Method: STANDARD PLATE): inactive; negative | mutagenic call (Test System: AMES SALMONELLA TYPHIMURIUM, Strain/Indicator: TA1537, Metabolic Activation: NONE, Method: STANDARD PLATE): inactive; negative | mutagenic call (Test System: AMES SALMONELLA TYPHIMURIUM, Strain/Indicator: TA1537, Metabolic Activation: RAT, LIVER, S-9, AROCLOR 1254, Method: STANDARD PLATE): inactive; negative | mutagenic call (Test System: AMES SALMONELLA TYPHIMURIUM, Strain/Indicator: TA1538, Metabolic Activation: HAMSTER, LIVER, S-9, AROCLOR 1254, Method: STANDARD PLATE): inactive; negative | mutagenic call [7]: inactive; negative | mutagenic call [8]: inactive; negative

CCOC(=O)c1cc(Cc2ccc(N)c(C(=O)OCC)c2)ccc1N
mutagenic call [10]: inactive; negative | mutagenic call (Test System: AMES SALMONELLA TYPHIMURIUM, Strain/Indicator: TA98, Metabolic Activation: RAT, LIVER, S-9, PCB, Method: PREINCUBATION): inactive; negative | mutagenic call (Test System: AMES SALMONELLA TYPHIMURIUM, Strain/Indicator: TA100, Metabolic Activation: NONE, Method: PREINCUBATION): inactive; negative

Cc1cc(C)c(C)cc1C
mutagenic call (Test System: AMES SALMONELLA TYPHIMURIUM, Strain/Indicator: TA97A, Metabolic Activation: NONE, Method: STANDARD PLATE): inactive; negative | mutagenic call (Test System: AMES SALMONELLA TYPHIMURIUM, Strain/Indicator: TA97A, Metabolic Activation: RAT LIVER S-9, AROCLOR 1254, Method: STANDARD PLATE): inactive; negative | mutagenic call [2]: inactive; negative | mutagenic call (Test System: AMES SALMONELLA TYPHIMURIUM, Strain/Indicator: TA98, Metabolic Activation: RAT LIVER S-9, AROCLOR 1254, Method: STANDARD PLATE): inactive; negative | mutagenic call [5]: inactive; negative | mutagenic call (Test System: AMES SALMONELLA TYPHIMURIUM, Strain/Indicator: TA100, Metabolic Activation: RAT LIVER S-9, AROCLOR 1254, Method: STANDARD PLATE): inactive; negative | mutagenic call (Test System: AMES SALMONELLA TYPHIMURIUM, Strain/Indicator: TA102, Metabolic Activation: NONE, Method: STANDARD PLATE): inactive; negative | mutagenic call (Test System: AMES SALMONELLA TYPHIMURIUM, Strain/Indicator: TA102, Metabolic Activation: RAT LIVER S-9, AROCLOR 1254, Method: STANDARD PLATE): inactive; negative

CCCCNC(=O)C=Cc1ccc([N+](=O)[O-])o1
mutagenic call [10]: active; positive
